Test results from patent publication US11649255B2, “Indazoles as hematopoietic progenitor kinase 1 (HPK1) inhibitors and methods using same” (1st Biotherapeutics, Inc., priority 2020, dated 2023).

target: recombinant human HPK1 (Homo sapiens (Human), UniProt Q92918); assay: HPK1 kinase assay (ADP-Glo); format: biochemical; settings: 25 μM ATP, MBP substrate
How it was run: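 Activity was read as ADP formed, detected by ADP-Glo luminescence after the reaction of 5 ng recombinant human HPK1 with MBP and ATP (stocks 0.5 μg/μl and 25 μM) for 40 min at 30 °C. Buffer was Tris pH 7.5 with MgCl2, BSA and DTT, with compound in 0.5% DMSO. IC50 came from inhibition curves.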

recombinant human HPK1, sequence (Q92918 whole entry): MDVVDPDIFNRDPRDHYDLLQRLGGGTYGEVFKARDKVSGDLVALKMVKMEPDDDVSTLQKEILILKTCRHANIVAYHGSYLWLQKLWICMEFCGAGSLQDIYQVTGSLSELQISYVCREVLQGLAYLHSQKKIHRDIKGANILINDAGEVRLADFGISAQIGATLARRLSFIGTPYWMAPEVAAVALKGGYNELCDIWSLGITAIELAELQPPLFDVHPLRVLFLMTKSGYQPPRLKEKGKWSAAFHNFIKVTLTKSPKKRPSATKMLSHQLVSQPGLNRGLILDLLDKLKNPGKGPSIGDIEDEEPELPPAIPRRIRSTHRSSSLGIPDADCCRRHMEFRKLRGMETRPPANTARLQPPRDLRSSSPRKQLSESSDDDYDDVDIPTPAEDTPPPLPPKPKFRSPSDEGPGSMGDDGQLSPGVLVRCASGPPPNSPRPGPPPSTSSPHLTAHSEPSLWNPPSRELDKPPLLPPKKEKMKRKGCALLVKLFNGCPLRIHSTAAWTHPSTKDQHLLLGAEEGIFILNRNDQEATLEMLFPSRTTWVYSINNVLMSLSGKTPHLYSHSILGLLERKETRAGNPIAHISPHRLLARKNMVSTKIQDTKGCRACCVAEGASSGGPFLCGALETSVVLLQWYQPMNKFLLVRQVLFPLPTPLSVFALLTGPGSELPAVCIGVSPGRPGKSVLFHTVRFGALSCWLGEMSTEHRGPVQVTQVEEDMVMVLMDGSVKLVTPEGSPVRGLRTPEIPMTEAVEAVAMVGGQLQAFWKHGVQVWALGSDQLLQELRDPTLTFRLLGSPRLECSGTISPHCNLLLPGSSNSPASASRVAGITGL

IC50	Compound
< 100 nM	Cc1c(F)c(SCCO)c2[nH]ncc2c1-c1ccc2nc(NC(=O)[C@@H]3C[C@@H]3F)cn2c1 [Example 292, (1S,2S)-2-fluoro-N-(6-(6-fluoro-7-((2-hydroxyethyl)thio)-5-methyl-1H-indazol-4-yl)imidazo[1,2-a]pyridin-2-yl)cyclopropane-1-carboxamide]
< 100 nM	CCc1c(F)cc2[nH]ncc2c1-c1ccc2nc(NC(=O)[C@@H]3C[C@@H]3F)cn2c1 [Example 294, (1S,2S)-N-(6-(5-ethyl-6-fluoro-1H-indazol-4-yl)imidazo[1,2-a]pyridin-2-yl)-2-fluorocyclopropane-1-carboxamide]
< 100 nM	O=C(Nc1cn2cc(-c3c(Cl)c(F)c(O)c4[nH]ncc34)ccc2n1)[C@@H]1C[C@@H]1F [Example 295, (1S,2S)-N-(6-(5-chloro-6-fluoro-7-hydroxy-1H-indazol-4-yl)imidazo[1,2-a]pyridin-2-yl)-2-fluorocyclopropane-1-carboxamide]
< 100 nM	CCc1c(F)c(F)c2[nH]ncc2c1-c1ccc2nc(NC(=O)[C@@H]3C[C@@H]3F)cn2c1 [Example 298, (1S,2S)-N-(6-(5-ethyl-6,7-difluoro-1H-indazol-4-yl)imidazo[1,2-a]pyridin-2-yl)-2-fluorocyclopropane-1-carboxamide]
101 to 500 nM	Cc1c(F)c([S+](C)[O-])c2[nH]ncc2c1-c1ccc2nc(NC(=O)[C@@H]3C[C@@H]3F)cn2c1 (stereo partly drawn) [Example 299, (1S,2S)-2-fluoro-N-(6-(6-fluoro-5-methyl-7-(methylsulfinyl)-1H-indazol-4-yl)imidazo[1,2-a]pyridin-2-yl)cyclopropane-1-carboxamide]
< 100 nM	CSc1c(F)c(N(C)C)c2[nH]ncc2c1-c1ccc2nc(NC(=O)[C@@H]3C[C@@H]3F)cn2c1 [Example 300, (1S,2S)-N-(6-(7-(dimethylamino)-6-fluoro-5-(methylthio)-1H-indazol-4-yl)imidazo[1,2-a]pyridin-2-yl)-2-fluorocyclopropane-1-carboxamide]
< 100 nM	CC(=O)Nc1c(F)c(Cl)c(-c2ccc3nc(NC(=O)[C@@H]4C[C@@H]4F)cn3c2)c2cn[nH]c12 [Example 301]
101 to 500 nM	Cc1c(F)c(S(C)(=O)=O)c2[nH]ncc2c1-c1ccc2nc(NC(=O)[C@@H]3C[C@@H]3F)cn2c1 [Example 302, (1S,2S)-2-fluoro-N-(6-(6-fluoro-5-methyl-7-(methylsulfonyl)-1H-indazol-4-yl)imidazo[1,2-a]pyridin-2-yl)cyclopropane-1-carboxamide]
< 100 nM	C[S+]([O-])c1c(F)c(Cl)c(-c2ccc3nc(NC(=O)[C@@H]4C[C@@H]4F)cn3c2)c2cn[nH]c12 (stereo partly drawn) [Example 303, (1S,2S)-N-(6-(5-chloro-6-fluoro-7-(methylsulfinyl)-1H-indazol-4-yl)imidazo[1,2-a]pyridin-2-yl)-2-fluorocyclopropane-1-carboxamide]
< 100 nM	CSc1c(F)c(F)c2[nH]ncc2c1-c1ccc2nc(NC(=O)[C@@H]3C[C@@H]3F)cn2c1 [Example 304, (1S,2S)-N-(6-(6,7-difluoro-5-(methylthio)-1H-indazol-4-yl)imidazo[1,2-a]pyridin-2-yl)-2-fluorocyclopropane-1-carboxamide]
< 100 nM	COC(=O)c1c(F)c(C)c(-c2ccc3nc(NC(=O)[C@@H]4C[C@@H]4F)cn3c2)c2cn[nH]c12 [Example 305, methyl 6-fluoro-4-(2-((1S,2S)-2-fluorocyclopropane-1-carboxamido)imidazo[1,2-a]pyridin-6-yl)-5-methyl-1H-indazole-7-carboxylate]
< 100 nM	CCN(C)c1c(F)c(Cl)c(-c2ccc3nc(NC(=O)[C@@H]4C[C@@H]4F)cn3c2)c2cn[nH]c12 [Example 306, (1S,2S)-N-(6-(5-chloro-7-(ethyl(methyl)amino)-6-fluoro-1H-indazol-4-yl)imidazo[1,2-a]pyridin-2-yl)-2-fluorocyclopropane-1-carboxamide]
< 100 nM	CN(C)c1c(F)c(C(F)(F)F)c(-c2ccc3nc(NC(=O)[C@@H]4C[C@@H]4F)cn3c2)c2cn[nH]c12 [Example 307, (1S,2S)-N-(6-(7-(dimethylamino)-6-fluoro-5-(trifluoromethyl)-1H-indazol-4-yl)imidazo[1,2-a]pyridin-2-yl)-2-fluorocyclopropane-1-carboxamide]
101 to 500 nM	CC(=O)Nc1c(F)c(C)c(-c2ccc3nc(NC(=O)[C@@H]4C[C@@H]4F)cn3c2)c2cn[nH]c12 [Example 308, (1S,2S)-N-(6-(7-acetamido-6-fluoro-5-methyl-1H-indazol-4-yl)imidazo[1,2-a]pyridin-2-yl)-2-fluorocyclopropane-1-carboxamide]
< 100 nM	CN(Nc1c(F)c(Cl)c(-c2ccc3nc(NC(=O)[C@@H]4C[C@@H]4F)cn3c2)c2cn[nH]c12)C(=O)OC(C)(C)C [Example 309, tert-butyl 2-(5-chloro-6-fluoro-4-(2-((1S,2S)-2-fluorocyclopropane-1-carboxamido)imidazo[1,2-a]pyridin-6-yl)-1H-indazol-7-yl)-1-methylhydrazine-1-carboxylate]
< 100 nM	CCOc1c(F)c(SC)c(-c2ccc3nc(NC(=O)[C@@H]4C[C@@H]4F)cn3c2)c2cn[nH]c12 [Example 310, (1S,2S)-N-(6-(7-ethoxy-6-fluoro-5-(methylthio)-1H-indazol-4-yl)imidazo[1,2-a]pyridin-2-yl)-2-fluorocyclopropane-1-carboxamide]
< 100 nM	CNC(=O)OCCSc1c(F)c(C)c(-c2ccc3nc(NC(=O)[C@@H]4C[C@@H]4F)cn3c2)c2cn[nH]c12 [Example 312, 2-((6-fluoro-4-(2-((1S,2S)-2-fluorocyclopropane-1-carboxamido)imidazo[1,2-a]pyridin-6-yl)-5-methyl-1H-indazol-7-yl)thio)ethyl methylcarbamate]
> 1000 nM	Cc1c(F)c(C(=O)O)c2[nH]ncc2c1-c1ccc2nc(NC(=O)[C@@H]3C[C@@H]3F)cn2c1 [Example 313, 6-fluoro-4-(2-((1S,2S)-2-fluorocyclopropane-1-carboxamido)imidazo[1,2-a]pyridin-6-yl)-5-methyl-1H-indazole-7-carboxylic acid]
> 1000 nM	O=C(O)c1c(F)c(Cl)c(-c2ccc3nc(NC(=O)[C@@H]4C[C@@H]4F)cn3c2)c2cn[nH]c12 [Example 314, 5-chloro-6-fluoro-4-(2-((1S,2S)-2-fluorocyclopropane-1-carboxamido)imidazo[1,2-a]pyridin-6-yl)-1H-indazole-7-carboxylic acid]
< 100 nM	COC(=O)c1c(F)c(Cl)c(-c2ccc3nc(NC(=O)[C@@H]4C[C@@H]4F)cn3c2)c2cn[nH]c12 [Example 315, methyl 5-chloro-6-fluoro-4-(2-((1S,2S)-2-fluorocyclopropane-1-carboxamido)imidazo[1,2-a]pyridin-6-yl)-1H-indazole-7-carboxylate]
< 100 nM	CNNc1c(F)c(Cl)c(-c2ccc3nc(NC(=O)[C@@H]4C[C@@H]4F)cn3c2)c2cn[nH]c12 [Example 317, (1S,2S)-N-(6-(5-chloro-6-fluoro-7-(2-methylhydrazineyl)-1H-indazol-4-yl)imidazo[1,2-a]pyridin-2-yl)-2-fluorocyclopropane-1-carboxamide]
< 100 nM	CCOc1c(F)c(CC)c(-c2ccc3nc(NC(=O)[C@@H]4C[C@@H]4F)cn3c2)c2cn[nH]c12 [Example 318, (1S,2S)-N-(6-(7-ethoxy-5-ethyl-6-fluoro-1H-indazol-4-yl)imidazo[1,2-a]pyridin-2-yl)-2-fluorocyclopropane-1-carboxamide]
